Measurements published in PubChem BioAssay (NCI).
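GI50 marks 50% less growth. TGI denotes the concentration required for complete inhibition of growth.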

Experiments:
Test in all cases: growth of human tumour cells (NCI), 384-well format
[1] = system: HCT-116 colon
[2] = system: SK-MEL-28 melanoma
[3] = system: HS 578T breast
[4] = system: DU-145 prostate
[5] = system: RXF 393 renal
[6] = system: ACHN renal
[7] = system: OVCAR-8 ovarian
[8] = system: OVCAR-4 ovarian
[9] = system: EKVX NSCLC
[10] = system: HL-60(TB) leukemia
[11] = system: LOX IMVI melanoma
[12] = system: MDA-MB-231 breast
[13] = system: M14 melanoma
[14] = system: UO-31 renal
[15] = system: SN12C renal
[16] = system: NCI-H23 lung
[17] = system: OVCAR-3 ovarian
[18] = system: MOLT-4 leukemia
[19] = system: NCI-H522 lung
[20] = system: UACC-257 melanoma
[21] = system: HOP-92 NSCLC
[22] = system: NCI-H322M lung
[23] = system: MDA-MB-435 melanoma
[24] = system: NCI-H226 lung
[25] = system: SW-620 colon
[26] = system: K-562 leukemia
[27] = system: HOP-62 NSCLC
[28] = system: HCT-15 colon
[29] = system: KM12 colon
[30] = system: SF-295 CNS
[31] = system: IGROV1 ovarian
[32] = system: CCRF-CEM leukemia
[33] = system: SNB-19 CNS
[34] = system: T-47D breast
[35] = system: A498 renal
[36] = system: SNB-75 CNS
[37] = system: SF-268 CNS
[38] = system: BT-549 breast
[39] = system: HT29 colon
[40] = system: PC-3 prostate
[41] = system: OVCAR-5 ovarian
[42] = system: MCF7 breast
[43] = system: MALME-3M melanoma
[44] = system: 786-0 renal
[45] = system: SF-539 CNS
[46] = system: SK-OV-3 ovarian
[47] = system: RPMI-8226 leukemia
[48] = system: A549 NSCLC
[49] = system: MDA-MB-468 breast
[50] = system: SK-MEL-2 melanoma
[51] = system: U251 glioblastoma
[52] = system: UACC-62 melanoma
[53] = system: NCI/ADR-RES ovarian
[54] = system: CAKI-1 renal
[55] = system: TK-10 renal

Clc1ccc(C(c2ccccc2Cl)C(Cl)Cl)cc1 (stereo not given)
GI50 [1]: 14.5 µM | TGI [1]: 28.2 µM | GI50 [2]: 17.6 µM | TGI [2]: 31.5 µM | GI50 [3]: 17 µM | TGI [3]: 30.8 µM | GI50 [4]: 16.8 µM | TGI [4]: 30.7 µM | GI50 [5]: 13.2 µM | TGI [5]: 26.1 µM | GI50 [6]: 16 µM | TGI [6]: 29.6 µM | GI50 [7]: 17 µM | TGI [7]: 30.9 µM | GI50 [8]: 15.7 µM | TGI [8]: 29.3 µM | GI50 [9]: 17.3 µM | TGI [9]: 31.2 µM | GI50 [10]: 10.5 µM | TGI [10]: 22.4 µM | GI50 [11]: 16.4 µM | TGI [11]: 30.1 µM | GI50 [12]: 16.4 µM | TGI [12]: 30.1 µM | GI50 [13]: 16.6 µM | TGI [13]: 30.4 µM | GI50 [14]: 16.6 µM | TGI [14]: 30.5 µM | GI50 [15]: 15.7 µM | TGI [15]: 29.3 µM | GI50 [16]: 17 µM | TGI [16]: 30.9 µM | GI50 [17]: 15.5 µM | TGI [17]: 29 µM | GI50 [18]: 5.16 µM | TGI [18]: 17.6 µM | GI50 [19]: 12.9 µM | TGI [19]: 25.7 µM | GI50 [20]: 17.6 µM | TGI [20]: 31.5 µM | GI50 [21]: 15.1 µM | TGI [21]: 28.5 µM | GI50 [22]: 18.8 µM | TGI [22]: 33.2 µM | GI50 [23]: 16.8 µM | TGI [23]: 30.7 µM | GI50 [24]: 16.2 µM | TGI [24]: 29.9 µM | GI50 [25]: 15.1 µM | TGI [25]: 28.7 µM | GI50 [26]: 17.9 µM | TGI [26]: 32.1 µM | GI50 [27]: 19.5 µM | TGI [27]: 33.7 µM | GI50 [28]: 13.9 µM | TGI [28]: 27.3 µM | GI50 [29]: 16.3 µM | TGI [29]: 30.1 µM | GI50 [30]: 16.2 µM | TGI [30]: 29.8 µM | GI50 [31]: 15 µM | TGI [31]: 28.4 µM | GI50 [32]: 16.2 µM | TGI [32]: 29.8 µM | GI50 [33]: 17.2 µM | TGI [33]: 31.2 µM | GI50 [34]: 15.5 µM | TGI [34]: 29.1 µM | GI50 [35]: 17.4 µM | TGI [35]: 31.3 µM | GI50 [36]: 17.8 µM | TGI [36]: 32.3 µM | GI50 [37]: 16.7 µM | TGI [37]: 30.5 µM | GI50 [38]: 18.5 µM | TGI [38]: 32.6 µM | GI50 [39]: 15.1 µM | TGI [39]: 28.9 µM | GI50 [40]: 14.3 µM | TGI [40]: 27.6 µM | GI50 [41]: 16.8 µM | TGI [41]: 30.7 µM | GI50 [42]: 17.6 µM | TGI [42]: 31.7 µM | GI50 [43]: 14.7 µM | TGI [43]: 27.9 µM | GI50 [44]: 16.2 µM | TGI [44]: 29.9 µM | GI50 [45]: 17.3 µM | TGI [45]: 31.2 µM | GI50 [46]: 16.1 µM | TGI [46]: 29.8 µM | GI50 [47]: 14 µM | TGI [47]: 27 µM | GI50 [48]: 16.9 µM | TGI [48]: 31 µM | GI50 [49]: 10.7 µM | TGI [49]: 22.7 µM | GI50 [50]: 19.1 µM | TGI [50]: 33.2 µM | GI50 [51]: 16.6 µM | TGI [51]: 30.5 µM | GI50 [52]: 17 µM | TGI [52]: 30.8 µM | GI50 [53]: 17.4 µM | TGI [53]: 31.4 µM | GI50 [54]: 12.9 µM | TGI [54]: 25.7 µM | GI50 [55]: 16.7 µM | TGI [55]: 30.6 µM
